Experiments:
[1] = system: renal cell carcinoma cell line (Caki-II); experiment: Cell survival assay (MTT assay), Caki-II; format: cell-based, human; details: 10 mM, 25 mM and 50 mM in MEM, 24 hours, compared with Control (p<0.05), FIG. 3
Procedure: (§1) The antitumor effect of rare sugars was analyzed using the three human renal cell carcinoma cell lines (ACHN, Caki-I, and Caki-II) used in Example 1. As the rare sugars, used were the following ten rare sugars: L-allulose, D-allulose, D-allose, L-fructose, D-mannose, L-sorbose, D-tagatose, D-galactose, D-sorbose, and L-tagatose, while as monosaccharides not belonging to rare sugars, D-glucose and D-fructose were used.
(§2) As a medium, a minimum essential medium (MEM) containing 1000 mg/l of D-glucose was used. By adjusting it to contain 10 mM, 25 mM, and 50 mM of each of the monosaccharides or rare sugars and using thus-obtained MEMs [shown by (10), (25), and (50) in the drawing], an antitumor effect of the rare sugars was evaluated.
(§3) A 5.0×10^4 cells/ml of each of cell suspensions was formed using MEM. The resulting suspension (0.1 ml/well) was distributed in a 96-well plate, followed by culturing for 24 hours. […]
(§4) The MTT assay is one of test methods for measuring survival and makes use of a color reaction of an insoluble formazan dye (blue) caused by the reduction of MTT which is a tetrazolium salt. […] The cell viability is determined by measuring this color reaction with a microplate reader.

[2] = Body weight in renal cell carcinoma xenograft mouse models; format: in vivo, mice; details: Control, 100 mg/kg and 400 mg/kg intraperitoneal once a day for 5 weeks; Mann-Whitney U test; FIG. 6
Procedure: The day when the tumor size of the renal cell carcinoma xenograft mouse models became 200 mm^3 or more was called day 0 and the intraperitoneal injection of a D-allose-containing solution was started from day 1. The solution injected is 0.4 mL of physiological saline or a solution obtained by dissolving 100 mg/kg or 400 mg/kg of D-allose in 0.4 mL physiological saline. The resulting solution was intraperitoneally injected into three groups of mice (Control, 100 mg/kg of D-allose, and 400 mg/kg of D-allose) once a day for 5 weeks in total. The body weight of the mice and the long and short diameters of the tumor were measured over time twice a week. It is to be noted that the tumor volume was obtained as a product of long diameter×short diameter×short diameter of the tumor×0.5. On day 35 after the intraperitoneal injection was started, the tumor as well as the liver and kidney were excised from the mice and provided for the experiment performed thereafter.

[3] = system: renal cell carcinoma cell line (Caki-I); experiment: Cell survival assay (MTT assay), Caki-I; format: cell-based, human; details: 10 mM, 25 mM and 50 mM in MEM, 24 hours, compared with Control (p<0.05), FIG. 2
Procedure: as §1, §2, §3, §4

[4] = system: human renal cell carcinoma cell line Caki-II; experiment: Rare sugar uptake experiment, sugar content in disrupted cell suspension of Caki-II; format: cell-based
Procedure: An uptake amount of a rare sugar, which had been added to a medium, into carcinoma cells was analyzed using the cell lines of three types of cancers. As the rare sugar, four kinds, that is, D-allose, D-allulose (D-psicose), L-allulose (L-psicose), and allitol were used, while D-glucose and fructose were used as a monosaccharide which was not a rare sugar.
Cells of each of the cell lines were cultured in RPMI-1640 media and during culturing, six sugars were each added to the resulting media and cultured. After culturing, an amount of each sugar taken up into the cells was analyzed. The medium to which no sugar was added during culturing was used as a control.
Used were human bladder carcinoma cell lines (RT112, 253), and J82), human prostatic carcinoma cell lines (LNCa, Du145, and PC-3), and human renal cell carcinoma cell lines (ACHN, Caki-I, and Caki-II).
After cells were cultured in RPMI-1640 (2000 mg D-glucose/L) media, the above monosaccharides and rare sugars were added to the resulting media, respectively. Described specifically, they were following seven combinations: RPMI-1640 alone (control), RPMI-1640+D-glucose, RPMI-1640+L-allulose, RPMI-1640+D-allulose, RPMI-1640+D-fructose, RPMI-1640+D-allose, and RPMI-1640+D-allitol. The final concentration of the sugar in the medium was adjusted to 10 mM and no sugar was added in the control.
Five-ml portions of a 3.0×10^4 cells/ml cell suspension prepared using RPMI-1640 were seeded in dishes having a diameter of 6 cm (1.5×10^5 cells/dish) and cultured for 24 hours in the RPMI-1640 medium containing 2000 mg/l of D-glucose as a nutrient source. Twenty-four hours later, the media were changed to the culture solutions containing the monosaccharides and rare sugars described above in 2), respectively, followed by culturing for 48 hours.
After culturing for 48 hours, the attached human carcinoma cells were mechanically separated and collected in a Spitz tube together with the culture solution and floating cells. After the supernatant formed by centrifugation (4° C., 1200 rpm, and 5 minutes) was removed to obtain cell pellets alone, 5 ml of a phosphate buffer physiological saline (PBS) was added for the purpose of washing to obtain a cell suspension of the cell pellets. A gain, the resulting cell suspension was centrifuged at 4° C. and 1200 rpm for 5 minutes and the supernatant was removed. To the cell pellets after washing was added 1 ml of pure water to suspend them therein. Ultrasonic disruption (intensity: 40%, 30 seconds) was then performed and the monosaccharide in the disrupted cell suspension was labeled with ABEE, followed by analysis by HPLC. From the area thus obtained, the sugar content in the cells was determined using a calibration curve. With respect to the ketose, two peaks were found after labeling with ABEE so that the sugar content in the cells was determined from the calibration curves of both peaks.

With `O=C[C@H](O)[C@H](O)[C@H](O)[C@H](O)CO` [D-allose] the Viability [1] was “significantly reduced the viability”, the “Mice weight, difference among three groups” value [2] was “No significant difference” and the Viability [3] was “significantly reduced the viability”. The “D-glucose content in cell” value ([4]; Caki-II, named sugar added to RPMI-1640 at 10 mM, 48 hours, HPLC after ABEE labeling) was 3.4 µg and the “Content in cell of the added sugar” value ([4]; human, 48 h, 10 mM) was 11.2 µg.

Reference: patent US20250249025A1, “DRUG DELIVERY CARRIER UTILIZING PROPERTY OF D-ALLOSE BEING UPTAKEN BY CANCER CELL, DRUG DELIVERY METHOD, AND COMPOSITION FOR TREATING RENAL CELL CARCINOMA” (NATIONAL UNIVERSITY CORPORATION KAGAWA UNIVERSITY, priority 2019, published 2025)
